Patent US5194379A, “Microbial transformation process for the preparation of hydroxylanol imidazo (4,5-b) pyridines useful as angiotensin II receptor antagonists” (Merck & Co., Inc., priority 1991, dated 1993)

Target: T1, Angiotensin II (A II) receptor (Oryctolagus cuniculus, UniProt P34976)
T1 sequence (P34976 1-359): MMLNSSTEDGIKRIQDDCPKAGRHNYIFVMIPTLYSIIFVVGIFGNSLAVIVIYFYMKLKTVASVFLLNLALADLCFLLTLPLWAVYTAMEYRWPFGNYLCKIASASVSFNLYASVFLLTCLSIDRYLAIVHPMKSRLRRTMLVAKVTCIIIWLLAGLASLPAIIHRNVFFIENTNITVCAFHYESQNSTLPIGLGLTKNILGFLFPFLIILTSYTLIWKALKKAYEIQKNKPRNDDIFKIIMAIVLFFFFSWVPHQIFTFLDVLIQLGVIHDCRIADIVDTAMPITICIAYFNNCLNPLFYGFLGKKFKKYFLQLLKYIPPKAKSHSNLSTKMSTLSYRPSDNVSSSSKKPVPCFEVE
Experiment: Receptor Binding Assay Using Rabbit Aortae Membrane Preparation (displacement of 125I-Sar1Ile8-angiotensin II)
Protocol: This assay is also referred to herein as the "IC50 " assay.
Receptor Binding Assay Using Rabbit Aortae Membrane Preparation
Three frozen rabbit aortae (obtained from Pel-Freeze Biologicals) were suspended in 5 mM Tris-0.25M Sucrose, pH 7.4 buffer (50 ml) homogenized, and then centifuged. The mixture was filtered through a cheesecloth and the supernatant was centrifuged for 30 minutes at 20,000 rpm at 4° C. The pellet thus obtained was resuspended in 30 ml of 50 mM Tris-5 mM MgCl2 buffer containing 0.2% Bovine Serum Albumin and 0.2 mg/ml Bacitration and the suspension was used for 100 assay tubes. Samples tested for screening were done in duplicate. To the membrane preparation (0.25 ml) there was added ^125 I-Sar^1 Ile^8 -angiotensin II [obtained from New England Nuclear] (10 ul; 20,000 cpm) with or without the test sample and the mixture was incubated at 37° C. for 90 minutes. The mixture was then diluted with ice-cold 50 mM Tris---0.9% NaCl, pH 7.4 (4 ml) and filtered through a glass fiber filter (GF/B Whatman 2.4" diameter). The filter was soaked in scintillation cocktail (10 ml) and counted for radioactivity using Packard 2260 Tricarb liquid scintillation counter. […]

SMILES	A II antagonist activity by the IC50 assay (in words)
CCc1nc2c(C)cc(CO)nc2n1Cc1ccc(-c2ccccc2-c2nnn[nH]2)cc1 [compound (I)]	exhibit A II antagonist activity
CCc1nc2c(CO)cc(C)nc2n1Cc1ccc(-c2ccccc2-c2nnn[nH]2)cc1 [compound (II)]	exhibit A II antagonist activity
